{"source": "patent US9346797B1", "about": "“2-amino 6-(difluoromethyl)-5,5-difluoro-6-phenyl-3,4,5,6-tetrahydropyridines as BACE1 inhibitors” (H. Lundbeck A/S, priority 2014, dated 2016)", "key": {"[1]": {"biological_target": "human BACE1 (Homo sapiens (Human), UniProt P56817)", "sequence (P56817 46-501)": "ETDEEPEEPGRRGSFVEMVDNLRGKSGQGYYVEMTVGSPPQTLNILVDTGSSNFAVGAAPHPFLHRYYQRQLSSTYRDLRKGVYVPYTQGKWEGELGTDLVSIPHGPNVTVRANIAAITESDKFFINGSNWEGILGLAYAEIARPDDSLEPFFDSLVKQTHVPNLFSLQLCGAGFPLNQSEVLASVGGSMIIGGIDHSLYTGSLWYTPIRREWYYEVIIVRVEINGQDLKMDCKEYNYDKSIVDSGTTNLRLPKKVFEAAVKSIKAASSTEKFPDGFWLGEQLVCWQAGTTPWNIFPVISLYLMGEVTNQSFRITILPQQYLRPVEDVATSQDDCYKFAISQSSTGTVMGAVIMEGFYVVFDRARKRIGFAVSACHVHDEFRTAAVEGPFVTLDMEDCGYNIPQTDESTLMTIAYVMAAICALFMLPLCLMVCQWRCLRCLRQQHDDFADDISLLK", "experiment": "BACE1 binding assay (SPA-based radioligand binding)", "conditions": "pH 4.5, Ki calculated from IC50", "procedure": "The binding assay was performed as SPA-based assay using a biotinylated form of human BACE1 recombinantly expressed and subsequently purified from Freestyle HEK293 cells. The binding assay was run in a 50 mM sodium acetate buffer, pH 4.5 containing 50 mM NaCl and 0.03% Tween-20 in white clear bottom 384 plates (Corning #3653). 10 nM (final concentration) radioligand ([^3H]—N-((1S,2R)-1-benzyl-3-cyclopropylamino-2-hydroxy-propyl)-5-(methanesulfonyl-methyl-amino)-N—((R)-1-phenyl-ethyl)-isophthalamide) (TRQ11569 purchased from GE Healthcare) was mixed with test compound at a given concentration, 6 nM (final concentration) human BACE1 and 25 μg Streptavidin coated PVT core SPA beads (RPNQ0007, GE Healthcare Life Sciences) in a total volume of 40 μl. Several concentrations of each test compound were tested in the assay for IC50 determination. The plates were incubated for one hour at room temperature and counted in a Wallac Trilux counter. Total and non-specific binding were determined using buffer and 1 μM (final concentration) of the high affinity BACE1 reference inhibitor (S)-6-[3-chloro-5-(5-prop-1-ynyl-pyridin-3-yl)-thiophen-2-yl]-2-imino-3,6-dimethyl-tetrahydro-pyrimidin-4-one, respectively. For each test compound, a IC50 value (the concentration mediating 50% inhibition of the specific binding of the radioligand) was determined from concentration-response curve and used to calculate the Ki from the equation Ki=IC50/(1+L/Kd), where L and Kd are the final concentration of the radioligand used in the assay and the dissociation constant of the radioligand, respectively. The Kd of the radioligand was determined from saturation binding experiments."}, "[2]": {"tested_on": "Aβ40", "experiment": "Assessment of Aβ levels in rat brain and plasma following BACE1 inhibition (Aβ40 ELISA)", "type": "in vivo", "conditions": "3 hours post dose, vs vehicle", "procedure": "Young adult Male Sprague Dawley rats of approximately 250 g weight were purchased from Charles River and received 0-30 mg/kg of vehicle (10% HP betaCD+1M MeSO4, pH 2.5) or test compounds (dissolved in vehicle) only by oral gavage (p.o). The compounds are dosed at a volume of 5 ml/kg. Cohorts of 5-10 animals were established for each treatment condition.\nAt T=180 minutes after initial dosing the animals were stunned and decapitated with a guillotine. Trunk-blood was sampled in EDTA coated tubes after decapitation of the animal. The blood was centrifuged at 2200 G at 4° C. for 15 minutes and the plasma was collected and frozen at −80° C. The blood was aliquoted for Aβ ELISA and DMPK analysis Immediately following sacrifice, the brain was extracted and split into 2 halves. The right hemibrains were snap frozen on dry ice and stored at −80° C. The left half was dissected; with the front forebrain taken for Aβ ELISA and the remainder used for DMPK analysis. These samples were also snap frozen on dry ice and stored at −80° C. until use for analysis.\nThe cortex samples were thawed slightly on wet ice before they were homogenized with a small volume dispersing instrument (T10 basic ULTRA-TURRAX®) which was set at speed 5 for approximately 5-7 sec. The tissue was processed in a 10 times volume of the weight, for example 100 mg of tissue was homogenized in 1000 μL of Homogenization buffer. Homogenization buffer: 50 ml Milli Q water+50 nM NaCl+0.2% Diethylamin (DEA)+1 tablet of Complete Protease inhibitor cocktail+1 nM 4-(2-aminoethyl) benzenesulfonyl fluoride hydrochloride irreversible serine protease inhibitor (AEBSF).\nAfter homogenization 450 μL aliquots of the samples are collected into a 1.5 ml Eppendorf tube and placed on wet ice, 0.5% NP-40 (50 ul) was added to all samples and then they were incubated on ice for 30 min. After which all samples were sonicated using an Ultrasonic homogenizer with 20 kHz homogeneous sound (SONOPLUS HD2070, Bandelin Electronic) 10 pulse set at 12-13% power to extract all the Aβ species. The samples were then centrifuged (Ole Dich 157 MPRF Micro centrifuge) at 20000 G for 20 minutes at 4° C. After centrifugation 285 μL of the supernatant was pipetted into 600 μL microtubes tubes and neutralized with 15 μL of 1M Tris-HCL buffer.\nWAKO 294-62501 Human/Rat Abeta amyloid (40) kit was used for all ELISA analyses. 30 μL plasma samples or 30 μL of the cortex supernatants generated as described above were placed in 600 μL microtubes tubes on wet ice. To this 30 μL of 8M Urea (AppliChem A1049, 9025) are added to generate a 2-fold dilution. Both plasma and cortex supernatants are incubated on ice for 30 min. Standard rows were prepared from the standard peptide stock provided in the kit and standard diluent containing 1.6M Urea (200 μL 8M Urea+800 μL of standard diluent) and 0.8M Urea (400 μL 8M Urea+3600 μL Standard diluent). A serial 2-fold dilution of Aβ40 from 100 pmol/ml to 0 pmol/L was prepared for the assay.\nAfter incubation with urea, all samples were further diluted by addition of 5 times standard diluent from the Kit. This was done by adding 240 μL Standard Diluent to 60 μL sample/urea mixture, which was then mixed well. 100 μL of each diluted sample was pipetted into designated wells of the ELISA plate in duplicates. The plate was then covered and incubated overnight at 4° C. The following day, the ELISA kit was brought to room temperature before use. The incubated plate was washed 5 times with the 20× washing solution diluted in Milli Q water. 100 μL HRP-conjugate was applied to each well, and the plate was covered and incubates at 4° C. for 1 hr. The wash was repeated again for 5 times. 100 μL 3,3′,5,5′-Tetramethylbenzidine (TMB) solution was applied to each well and the plate was covered and incubated in the dark at room temperature for 30 minutes. […]"}, "[3]": {"tested_on": "P-gp (MDR1)", "experiment": "MDCK-MDR1 assay (permeability/efflux)", "type": "in vitro ADME", "conditions": "dog, Papp BA/Papp AB, 60-minute incubation, Pgp substrate when ≧2", "procedure": "The permeability of the test compounds was assessed in MDCK-MDR1 cells that were cultured to confluency (4-6 days) in a 96 transwell plate. Test compounds were diluted with the transport buffer (HBSS+1% BSA) to a concentration of 0.5 μM and applied to the apical or basolateral side of the cell monolayer. Permeation of the test compounds from A to B direction or B to A direction was determined in triplicate over a 60-minute incubation time at 37° C. and 5% CO2 with a relative humidity of 95%. Test compounds were quantified by LC-MS/MS analysis based on the peaks area ratios of analyte/IS in both the receiver and donor wells of the transwell plate.\nThe apparent permeability coefficient Papp (cm/s) was calculated using the equation: Papp=(dCr/dt)×Vr/(A×C0)\nWhere dCr/dt is the cumulative concentration of compound in the receiver chamber as a function of time (μM/s); Vr is the solution volume in the receiver chamber (0.05 mL on the apical side; 0.25 mL on the basolateral side); A is the surface area for the transport, i.e. 0.0804 cm^2 for the area of the monolayer; CO is the initial concentration in the donor chamber (μM).\nCompounds are classified Pgp substrates when efflux ratio (Papp BA/Papp AB) is ≧2."}}}
{"smiles": "COc1ccc(C(=O)Nc2ccc(F)c([C@@]3(C(F)F)N=C(N)CCC3(F)F)c2)nc1", "note": "[Compound 5, (S)—N-(3-(6-amino-2-(difluoromethyl)-3,3-difluoro-2,3,4,5-tetrahydropyridin-2-yl)-4-fluorophenyl)-5-methoxypicolinamide]", "values": [{"measurement": "Ki", "setting": "[1]", "result": 6.7, "unit": "nM"}, {"measurement": "Aβ40 reduction", "setting": "[2]; brain, 10 mg/kg p.o.", "result": 5, "unit": "%"}, {"measurement": "Aβ40 reduction", "setting": "[2]; brain, 30 mg/kg p.o.", "result": 36, "unit": "%"}, {"measurement": "Aβ40 reduction", "setting": "[2]; plasma, 10 mg/kg p.o.", "result": 40, "unit": "%"}, {"measurement": "Aβ40 reduction", "setting": "[2]; plasma, 30 mg/kg p.o.", "result": 49, "unit": "%"}, {"measurement": "efflux ratio at 60 min, 0.5 μM", "setting": "[3]", "result": 0.99}]}
{"smiles": "COc1cnc(C(=O)Nc2ccc(F)c([C@@]3(C(F)F)N=C(N)CCC3(F)F)c2)cn1", "note": "[Compound 3, (S)—N-(3-(6-amino-2-(difluoromethyl)-3,3-difluoro-2,3,4,5-tetrahydropyridin-2-yl)-4-fluorophenyl)-5-methoxypyrazine-2-carboxamide]", "values": [{"measurement": "Ki", "setting": "[1]", "result": 8.5, "unit": "nM"}, {"measurement": "Aβ40 reduction", "setting": "[2]; brain, 10 mg/kg p.o.", "result": 24, "unit": "%"}, {"measurement": "Aβ40 reduction", "setting": "[2]; brain, 30 mg/kg p.o.", "result": 38, "unit": "%"}, {"measurement": "Aβ40 reduction", "setting": "[2]; plasma, 10 mg/kg p.o.", "result": 39, "unit": "%"}, {"measurement": "Aβ40 reduction", "setting": "[2]; plasma, 30 mg/kg p.o.", "result": 42, "unit": "%"}, {"measurement": "efflux ratio at 60 min, 0.5 μM", "setting": "[3]", "result": 1.22}]}
